Results as given in publication PMC10167921 (Biochemical pharmacology, 2021).
≈ marks a conversion by molar mass, not a printed value. Where “and” joins values, the source holds several entries; their conditions need not be identical. Equal values may be shown once. Where a SMILES comes first, the peptide text is derived from it. Bridges are numbered along the chain shown (N, C = ends). Where no end group is shown, it is not given here. [ ]: non-standard residue; d: D form. The star is where a group is joined. X1 = CC[C@H](C)CCCCC(=O)*; Dab = NCC[C@H](N)C(=O)O

Columns and labels:
E.coli ATCC 259922 = assay: Antimicrobial assay; type: cell-based, Escherichia coli; settings: CaMHB, 5 × 10^5 CFU mL^−1, 37 °C, 20 h, visual, duplicate
S. aureus ATCC 43300 = assay: microbe, parasite or virus in culture; type: cell-based, Staphylococcus aureus; settings: for Minimum inhibitory concentration: S. aureus ATCC 43300, CaMHB, 5 × 10^5 CFU mL^−1, 37 °C, 20 h, visual, duplicate
B. subtilis ATCC 6051 = assay: microbe, parasite or virus in culture; type: cell-based, Bacillus subtilis; settings: for Minimum inhibitory concentration: B. subtilis ATCC 6051, CaMHB, 5 × 10^5 CFU mL^−1, 37 °C, 20 h, visual, duplicate
human red blood cells = assay: Hemolysis assay; type: cell-based
HEK293 cells = assay: Cytotoxicity assay; type: cell-based; settings: HEK293, 24 h at 37 °C, resazurin fluorescence; two independent experiments of duplicate assays (n = 2)
[1] = test system: Gram negative and Gram-positive bacterial pathogens; assay: Antimicrobial assay, summary over the bacterial panel; type: cell-based; settings: range over both strains

Row | Molecule | Minimum inhibitory concentration (E.coli ATCC 259922) | MIC (S. aureus ATCC 43300; Staphylococcus aureus, ATCC43300, 20 h, read-out: Minimum inhibitory concentration) | MIC (B. subtilis ATCC 6051; Bacillus subtilis, ATCC6051, 20 h, read-out: Minimum inhibitory concentration) | Minimum inhibitory concentration (S. aureus ATCC 43300) | Hemolysis at fixed concentration (human red blood cells; 100 μM peptide) | Hemolysis at fixed concentration (human red blood cells; 300 μM peptide) | Minimum inhibitory concentration (B. subtilis ATCC 6051) | Cytotoxicity (CC50), 50% death of HEK293 cells (HEK293 cells) | MIC against Gram-positive bacteria (Staphylococcus aureus and B. subtilis) [1]
1 | CC[C@H](C)CCCCC(=O)N[C@@H](CCN)C(=O)N[C@H](C(=O)N[C@@H](CCN)C(=O)N[C@H]1CCNC(=O)[C@H]([C@@H](C)O)NC(=O)[C@H](CCN)NC(=O)[C@H](CCN)NC(=O)[C@H](CC(C)C)NC(=O)[C@@H](CC(C)C)NC(=O)[C@H](CCN)NC1=O)[C@@H](C)O [Colistin, colistin, reference compound] (X1-[Dab]T[Dab][Dab][Dab][dL]L[Dab][Dab]T; lactam 4-C (inferred); N-terminus assumed) | 0.02 to 0.11 µM |  |  |  |  |  |  |  | 
2 | CN[C@H](CC(C)C)C(=O)N[C@H]1C(=O)N[C@@H](CC(N)=O)C(=O)N[C@H]2C(=O)N[C@H]3C(=O)N[C@H](C(=O)N[C@H](C(=O)O)c4cc(O)cc(O)c4-c4cc3ccc4O)[C@H](O)c3ccc(c(Cl)c3)Oc3cc2cc(c3O[C@@H]2O[C@H](CO)[C@@H](O)[C@H](O)[C@H]2O[C@H]2C[C@](C)(N)[C@H](O)[C@H](C)O2)Oc2ccc(cc2Cl)[C@H]1O [Vancomycin, vancomycin, reference compound] |  | 0.69 to 1.38 µM (≈ 1 to 2 µg/mL) | 0.17 to 0.35 µM (≈ 0.246 to 0.507 µg/mL) |  |  |  |  |  | 
3 | AGTKEWLNKAKDFIKEKGLGMLSAAANAALN [Nc3b] | >40 µM |  |  | >40 µM | no hemolysis | no hemolysis | >40 µM |  | 
4 | FLGALLKIGAKLLPSVVGLFKKKQQ [Na1b] | 5.9 to 11.8 µM |  |  | 0.3 to 5.9 µM |  |  | 0.18 to 2.9 µM | 4.5 to 5.9 µM | 
5 | FVKELWDKVKKMGSAAWSAAKGAFA [Nc2a] | 11.7 to 46.9 µM |  |  | >40 µM | no hemolysis |  | 5.9 to 11.8 µM | > 40 µM and 48.2 to 56.9 µM | 
6 | FWGAAAKMLGKALPGLISMFQKN [Nc1a] | 25.8 to 51.6 µM |  |  | 2.9 to 5.9 µM |  |  | 1.48 to 5.9 µM | 12.6 to 13.5 µM | 1.48 to 5.9 µM
7 | GWKDWLNKAKDFIKEKGPEILRAAANAAIN [Nc3a] | 2.3 to 4.7 µM |  |  | 23.7 to 47.4 µM | no hemolysis |  | 1.48 to 2.9 µM |  | 
